According to patent US12274732B2, “Anti-pathogen composition and methods of use thereof” (Tenfold Technologies, LLC, priority 2017, dated 2025):
In brackets after ≈: the same amount, converted by molar mass. Where two headings read alike, the source gives them in different places.

Key:
Assay type in all cases: cell-based
T. brucei = experiment: In-vitro antiparasitic activity against T. brucei
Experimental: (§1) The antimicrobial activities of identified fusaricidins were in an in vitro study against several clinically relevant microbes. […] For the in-vitro assays against bacteria, fusaricidins were tested against methicillin-resistant Staphylococcus aureus, vancomycin-resistant Enterococcus faecium, Escherichia coli, and Pseudomonas aeruginosa using four antibacterial drugs methicillin, vancomycin, cefotaxime, and meropenem as controls. […] Fusaricidins were also tested against fungal pathogens Cryptococcus neoformans, Candida albicans, and Aspergillus fumigatus and compared with two antifungal drugs, fluconazole and amphotericin B (Table 13). Moreover, the anti-parasitic activity was also tested against L. donovani and T. brucei (Table 14).

THP-1 = experiment: Cytotoxicity against THP-1 cells (counter-screen of the antiparasitic assays)
Experimental: as §1

Escherichia coli = experiment: In vitro antimicrobial activity against Escherichia coli
Experimental: (§2) Fifty organic extracts were prepared from 25 whole broth of four microbial strains (MS1479, MS2379, MS2820, and MS2414), which were fermented in different media for the antimicrobial testing. Note each whole broth culture generated one n-butanol extract from cultural supernatant and one methanol extract from cell pellets.
(§3) The antimicrobial activities of the 50 organic extracts were studied against three fungal pathogens—Candida albicans, Aspergillus fumigatus, and Cryptococcus neoformans—and five bacterial strains-Methicillin-resistant Staphylococcus aureus (MIRSA), Escherichia coli, Pseudomonas aeruginosa, Klebsiella pneumoniae, and Vancomycin-resistant Enterococcus faecium (VRE) (FIG. 2). The test concentrations for all extracts were in the range of 8-200 μg/mL (Table 3).
as §1

Candida albicans = experiment: In vitro antimicrobial activity against Candida albicans
Experimental: as §2, §3, §1

[1] = system: Methicillin-resistant Staphylococcus aureus (MRSA); experiment: In vitro antimicrobial activity against MRSA
Experimental: as §2, §3, §1

Cryptococcus neoformans = experiment: In vitro antimicrobial activity against Cryptococcus neoformans
Experimental: as §2, §3
The potent activities against the fungal pathogen C. neoformans and the gram-positive bacteria S. aureus, MRSA, and M. intracellulare were also shown in the crude extracts (FIG. 7).
as §1

Klebsiella pneumoniae = experiment: In vitro antimicrobial activity against Klebsiella pneumoniae
Experimental: as §2, §3

Pseudomonas aeruginosa = experiment: In vitro antimicrobial activity against Pseudomonas aeruginosa
Experimental: as §2, §3, §1

L. donovani = experiment: In-vitro antiparasitic activity against L. donovani
Experimental: as §1

[2] = system: Vancomycin-resistant Enterococcus faecium (VRE); experiment: In vitro antimicrobial activity against VRE
Experimental: as §2, §3, §1

Aspergillus fumigatus = experiment: In vitro antimicrobial activity against Aspergillus fumigatus
Experimental: as §2, §3, §1

[3] = test conc. 200-8 μg/mL (extracts), 100-4 or 10-0.4 μg/mL (drugs)
[4] = Table 5, extracts tested at 8-200 μg/mL
[5] = Table 12, highest test conc. fusaricidins 20, controls 100 μg/mL
[6] = Table 12, lowest concentration that allows no detectable growth

NCCC[C@](N)(C(=O)O)C(F)F [α-Difluoromethylomithine]
T. brucei IC50 (T. brucei): 5.7 mg/L | T. brucei IC90 (T. brucei; 90% inhibitory concentration): 6.6 mg/L

C[C@@H]1[C@H](O)[C@@H](C)/C=C/C=C/C=C/C=C/C=C/C=C/C=C/[C@H](O[C@@H]2O[C@H](C)[C@@H](O)[C@H](N)[C@@H]2O)C[C@@H]2O[C@](O)(C[C@@H](O)C[C@@H](O)[C@H](O)CC[C@@H](O)C[C@@H](O)CC(=O)O[C@H]1C)C[C@H](O)[C@H]2C(=O)O [Amphotericin B]
THP-1 IC50 (THP-1): >2/>2 μg/mL | THP-1 IC90 (THP-1; 90% inhibitory concentration): >2/>2 μg/mL | E. coli IC50 (Escherichia coli; [3]): >100 mg/L | C. albicans IC50 (Candida albicans; [4]): <0.1 mg/L | C. albicans IC50 (50% growth inhibitory concentration) (Candida albicans; [5]): 0.4 mg/L | C. albicans MIC (minimum inhibitory concentration) (Candida albicans; [6]): 0.8 mg/L | C. albicans IC50 (Candida albicans; [3]): <0.1 mg/L | MRS IC50 [1, 4]: >100 mg/L | MRS IC50 [1, 3]: >100 mg/L | IC50 against C. neoformans (Cryptococcus neoformans; Example 4, column fractions of MS2414 extract (FIG. 7)): 0.15 mg/L (≈ 0.162 µM) | C. neoformans IC50 (Cryptococcus neoformans; [4]): 0.24 mg/L | C. neoformans IC50 (50% growth inhibitory concentration) (Cryptococcus neoformans; [5]): 0.3 mg/L | C. neoformans MIC (minimum inhibitory concentration) (Cryptococcus neoformans; [6]): 0.4 mg/L | C. neoformans IC50 (Cryptococcus neoformans; [3]): 0.24 mg/L | K pneumoniae IC50 (Klebsiella pneumoniae; [3]): >100 mg/L | P. aeruginosa IC50 (Pseudomonas aeruginosa; [3]): >100 mg/L | L. donovani Amastigote IC50 (L. donovani; amastigote): 0.9 mg/L | L. donovani Amastigote/THP IC50 (L. donovani; amastigote/THP): 0.2/0.2 μg/mL | L. donovani Amastigote/THP IC90 (L. donovani; amastigote/THP, 90% inhibitory concentration): 0.2/0.2 μg/mL | L. donovani Amastigote IC90 (L. donovani; amastigote, 90% inhibitory concentration): 1.1 mg/L | L. donovani Promastigote IC50 (L. donovani; promastigote): 0.3 mg/L | L. donovani Promastigote IC90 (L. donovani; promastigote, 90% inhibitory concentration): 0.4 mg/L | VRE IC50 [2, 4]: >100 mg/L | VRE IC50 [2, 3]: >100 mg/L | A. fumigatus IC50 (Aspergillus fumigatus; [4]): 1.407 mg/L | A. fumigatus IC50 (50% growth inhibitory concentration) (Aspergillus fumigatus; [5]): 2.4 mg/L | A. fumigatus MIC (minimum inhibitory concentration) (Aspergillus fumigatus; [6]): 3.1 mg/L | A. fumigatus IC50 (Aspergillus fumigatus; [3]): 1.407 mg/L

CN[C@H](CC(C)C)C(=O)N[C@H]1C(=O)N[C@@H](CC(N)=O)C(=O)N[C@H]2C(=O)N[C@H]3C(=O)N[C@H](C(=O)N[C@H](C(=O)O)c4cc(O)cc(O)c4-c4cc3ccc4O)[C@H](O)c3ccc(c(Cl)c3)Oc3cc2cc(c3O[C@@H]2O[C@H](CO)[C@@H](O)[C@H](O)[C@H]2O[C@H]2C[C@](C)(N)[C@H](O)[C@H](C)O2)Oc2ccc(cc2Cl)[C@H]1O [Vancomycin]
IC50 (Escherichia coli; Escherichia coli, ATCC2452, read-out: E. coli IC50 (50% growth inhibitory concentration)): 62.3 mg/L (≈ 43 µM) | MIC (Escherichia coli; Escherichia coli, ATCC2452, read-out: E. coli MIC (minimum inhibitory concentration)): > 100 mg/L | IC50 (Escherichia coli; Escherichia coli, read-out: E. coli IC50): 67.4 mg/L (≈ 46.5 µM) | IC50 (Candida albicans; Candida albicans, read-out: C. albicans IC50): > 100 mg/L | C. albicans IC50 (Candida albicans; [4]): >100 mg/L | IC50 ([1]; Staphylococcus aureus, ATCC 1708 / MRSA, read-out: MRSA IC50 (50% growth inhibitory concentration)): 1.3 mg/L (≈ 0.897 µM) | MIC ([1]; Staphylococcus aureus, ATCC 1708 / MRSA, read-out: MRSA MIC (minimum inhibitory concentration)): 1.6 mg/L (≈ 1.1 µM) | IC50 ([1]; Staphylococcus aureus, MRSA, read-out: MRS IC50): 0.17 mg/L (≈ 0.117 µM) | IC50 (Cryptococcus neoformans; Cryptococcus neoformans, read-out: C. neoformans IC50): > 100 mg/L | C. neoformans IC50 (Cryptococcus neoformans; [4]): >100 mg/L | IC50 (Klebsiella pneumoniae; Klebsiella pneumoniae, read-out: K pneumoniae IC50): > 100 mg/L | IC50 (Pseudomonas aeruginosa; Pseudomonas aeruginosa, ATCC2108, read-out: P. aeruginosa IC50 (50% growth inhibitory concentration)): > 100 mg/L | MIC (Pseudomonas aeruginosa; Pseudomonas aeruginosa, ATCC2108, read-out: P. aeruginosa MIC (minimum inhibitory concentration)): > 100 mg/L | IC50 (Pseudomonas aeruginosa; Pseudomonas aeruginosa, read-out: P. aeruginosa IC50): > 100 mg/L | IC50 ([2]; Enterococcus faecium, ATCC 700221 / VRE, read-out: VRE IC50 (50% growth inhibitory concentration)): > 100 mg/L | MIC ([2]; Enterococcus faecium, ATCC 700221 / VRE, read-out: VRE MIC (minimum inhibitory concentration)): > 100 mg/L | VRE IC50 [2, 4]: >100 mg/L | IC50 ([2]; read-out: VRE IC50): > 100 mg/L | IC50 (Aspergillus fumigatus; Aspergillus fumigatus, read-out: A. fumigatus IC50): > 100 mg/L | A. fumigatus IC50 (Aspergillus fumigatus; [4]): >100 mg/L
